Results published in ChEMBL document CHEMBL5338817, “Discovery of Exceptionally Potent, Selective, and Efficacious PROTAC Degraders of CBP and p300 Proteins” (J Med Chem, 2023).

Columns and labels:
RS4-11 [1] = experiment: Cytotoxicity against human RS4-11 cells assessed as inhibition of cell growth incubated for 4 days by cellTiter-Glo assay; format: functional, cell-based; conditions: RS4-11, 96 h
[2] = target: T1, Histone acetyltransferase p300 (Homo sapiens, UniProt Q09472); experiment: Induction of p300 degradation in human RS4-11 cells assessed as maximal degradation incubated for 4 hrs by Western blot assay relative to control; format: cell-based
CREB-binding protein [3] = target: T2, CREB-binding protein (Homo sapiens, UniProt Q92793); experiment: Induction of CBP degradation in human RS4-11 cells assessed as maximal degradation incubated for 4 hrs by Western blot assay; format: cell-based
Target sequence in this assay (Q92793 2-2442 limits assumed): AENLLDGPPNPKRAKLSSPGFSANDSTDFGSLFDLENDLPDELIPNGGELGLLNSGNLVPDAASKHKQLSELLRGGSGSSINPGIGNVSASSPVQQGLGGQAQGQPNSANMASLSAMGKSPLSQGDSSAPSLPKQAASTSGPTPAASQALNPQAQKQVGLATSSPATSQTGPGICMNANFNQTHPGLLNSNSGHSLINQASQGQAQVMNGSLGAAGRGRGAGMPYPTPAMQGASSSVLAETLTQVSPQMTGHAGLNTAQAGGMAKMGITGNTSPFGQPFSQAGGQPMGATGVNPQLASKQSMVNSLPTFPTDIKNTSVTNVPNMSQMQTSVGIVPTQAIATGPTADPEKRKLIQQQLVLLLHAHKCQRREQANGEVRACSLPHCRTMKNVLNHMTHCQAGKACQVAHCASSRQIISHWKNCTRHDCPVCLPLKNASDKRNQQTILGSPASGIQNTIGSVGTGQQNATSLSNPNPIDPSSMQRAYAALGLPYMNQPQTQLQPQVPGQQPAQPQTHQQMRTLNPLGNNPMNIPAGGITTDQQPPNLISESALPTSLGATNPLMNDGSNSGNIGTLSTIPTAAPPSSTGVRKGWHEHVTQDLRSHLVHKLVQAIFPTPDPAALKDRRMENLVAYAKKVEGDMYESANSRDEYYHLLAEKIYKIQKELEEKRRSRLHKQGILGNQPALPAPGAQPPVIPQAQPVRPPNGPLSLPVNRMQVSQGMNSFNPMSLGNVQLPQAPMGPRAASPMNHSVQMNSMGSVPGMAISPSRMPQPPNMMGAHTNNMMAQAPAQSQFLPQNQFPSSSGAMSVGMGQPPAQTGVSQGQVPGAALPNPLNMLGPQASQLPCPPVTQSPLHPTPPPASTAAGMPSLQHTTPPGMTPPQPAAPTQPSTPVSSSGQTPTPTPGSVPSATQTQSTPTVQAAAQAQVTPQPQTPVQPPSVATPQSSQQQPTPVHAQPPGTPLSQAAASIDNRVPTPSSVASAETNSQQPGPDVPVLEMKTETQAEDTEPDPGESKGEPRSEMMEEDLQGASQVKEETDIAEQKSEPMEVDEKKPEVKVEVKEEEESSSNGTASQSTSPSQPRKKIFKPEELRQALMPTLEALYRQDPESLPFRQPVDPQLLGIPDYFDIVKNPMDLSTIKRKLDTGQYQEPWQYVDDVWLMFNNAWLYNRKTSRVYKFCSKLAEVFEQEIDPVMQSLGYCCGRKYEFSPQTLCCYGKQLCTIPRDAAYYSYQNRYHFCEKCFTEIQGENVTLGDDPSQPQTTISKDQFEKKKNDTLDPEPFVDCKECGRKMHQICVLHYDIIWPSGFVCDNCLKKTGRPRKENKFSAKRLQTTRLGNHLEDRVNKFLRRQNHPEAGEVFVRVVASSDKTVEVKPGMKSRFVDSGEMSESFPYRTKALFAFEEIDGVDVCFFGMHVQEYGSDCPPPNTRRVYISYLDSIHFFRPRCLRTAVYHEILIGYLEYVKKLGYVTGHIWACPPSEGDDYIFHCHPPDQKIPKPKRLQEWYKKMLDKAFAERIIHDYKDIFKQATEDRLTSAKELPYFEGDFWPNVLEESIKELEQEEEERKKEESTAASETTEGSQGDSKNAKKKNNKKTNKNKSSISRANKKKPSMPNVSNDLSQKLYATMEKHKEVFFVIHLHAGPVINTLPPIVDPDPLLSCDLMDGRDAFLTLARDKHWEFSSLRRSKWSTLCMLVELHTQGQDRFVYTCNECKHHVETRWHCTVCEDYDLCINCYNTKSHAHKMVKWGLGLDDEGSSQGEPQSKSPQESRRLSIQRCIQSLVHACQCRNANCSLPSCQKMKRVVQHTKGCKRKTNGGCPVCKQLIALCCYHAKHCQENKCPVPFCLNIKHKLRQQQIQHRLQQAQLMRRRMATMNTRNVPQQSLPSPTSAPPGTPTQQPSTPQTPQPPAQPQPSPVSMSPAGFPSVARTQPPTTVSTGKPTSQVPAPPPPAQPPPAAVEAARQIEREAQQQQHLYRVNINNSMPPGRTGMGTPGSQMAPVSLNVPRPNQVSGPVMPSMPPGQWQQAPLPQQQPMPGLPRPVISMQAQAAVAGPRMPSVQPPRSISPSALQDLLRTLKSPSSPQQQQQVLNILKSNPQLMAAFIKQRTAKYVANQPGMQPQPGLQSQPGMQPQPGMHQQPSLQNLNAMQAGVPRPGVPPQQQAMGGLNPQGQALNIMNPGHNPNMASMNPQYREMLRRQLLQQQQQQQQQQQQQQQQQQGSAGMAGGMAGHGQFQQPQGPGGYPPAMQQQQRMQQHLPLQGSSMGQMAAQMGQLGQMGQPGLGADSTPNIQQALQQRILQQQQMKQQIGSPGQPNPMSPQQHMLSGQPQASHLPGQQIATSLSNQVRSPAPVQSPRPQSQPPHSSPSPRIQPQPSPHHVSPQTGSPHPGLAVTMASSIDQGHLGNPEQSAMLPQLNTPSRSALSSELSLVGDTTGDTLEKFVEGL

CREB-binding protein [4] = target: T2, CREB-binding protein; experiment: Induction of CBP degradation in human RS4-11 cells incubated for 4 hrs by Western blot assay; format: cell-based
Target sequence in this assay (Q92793 whole entry): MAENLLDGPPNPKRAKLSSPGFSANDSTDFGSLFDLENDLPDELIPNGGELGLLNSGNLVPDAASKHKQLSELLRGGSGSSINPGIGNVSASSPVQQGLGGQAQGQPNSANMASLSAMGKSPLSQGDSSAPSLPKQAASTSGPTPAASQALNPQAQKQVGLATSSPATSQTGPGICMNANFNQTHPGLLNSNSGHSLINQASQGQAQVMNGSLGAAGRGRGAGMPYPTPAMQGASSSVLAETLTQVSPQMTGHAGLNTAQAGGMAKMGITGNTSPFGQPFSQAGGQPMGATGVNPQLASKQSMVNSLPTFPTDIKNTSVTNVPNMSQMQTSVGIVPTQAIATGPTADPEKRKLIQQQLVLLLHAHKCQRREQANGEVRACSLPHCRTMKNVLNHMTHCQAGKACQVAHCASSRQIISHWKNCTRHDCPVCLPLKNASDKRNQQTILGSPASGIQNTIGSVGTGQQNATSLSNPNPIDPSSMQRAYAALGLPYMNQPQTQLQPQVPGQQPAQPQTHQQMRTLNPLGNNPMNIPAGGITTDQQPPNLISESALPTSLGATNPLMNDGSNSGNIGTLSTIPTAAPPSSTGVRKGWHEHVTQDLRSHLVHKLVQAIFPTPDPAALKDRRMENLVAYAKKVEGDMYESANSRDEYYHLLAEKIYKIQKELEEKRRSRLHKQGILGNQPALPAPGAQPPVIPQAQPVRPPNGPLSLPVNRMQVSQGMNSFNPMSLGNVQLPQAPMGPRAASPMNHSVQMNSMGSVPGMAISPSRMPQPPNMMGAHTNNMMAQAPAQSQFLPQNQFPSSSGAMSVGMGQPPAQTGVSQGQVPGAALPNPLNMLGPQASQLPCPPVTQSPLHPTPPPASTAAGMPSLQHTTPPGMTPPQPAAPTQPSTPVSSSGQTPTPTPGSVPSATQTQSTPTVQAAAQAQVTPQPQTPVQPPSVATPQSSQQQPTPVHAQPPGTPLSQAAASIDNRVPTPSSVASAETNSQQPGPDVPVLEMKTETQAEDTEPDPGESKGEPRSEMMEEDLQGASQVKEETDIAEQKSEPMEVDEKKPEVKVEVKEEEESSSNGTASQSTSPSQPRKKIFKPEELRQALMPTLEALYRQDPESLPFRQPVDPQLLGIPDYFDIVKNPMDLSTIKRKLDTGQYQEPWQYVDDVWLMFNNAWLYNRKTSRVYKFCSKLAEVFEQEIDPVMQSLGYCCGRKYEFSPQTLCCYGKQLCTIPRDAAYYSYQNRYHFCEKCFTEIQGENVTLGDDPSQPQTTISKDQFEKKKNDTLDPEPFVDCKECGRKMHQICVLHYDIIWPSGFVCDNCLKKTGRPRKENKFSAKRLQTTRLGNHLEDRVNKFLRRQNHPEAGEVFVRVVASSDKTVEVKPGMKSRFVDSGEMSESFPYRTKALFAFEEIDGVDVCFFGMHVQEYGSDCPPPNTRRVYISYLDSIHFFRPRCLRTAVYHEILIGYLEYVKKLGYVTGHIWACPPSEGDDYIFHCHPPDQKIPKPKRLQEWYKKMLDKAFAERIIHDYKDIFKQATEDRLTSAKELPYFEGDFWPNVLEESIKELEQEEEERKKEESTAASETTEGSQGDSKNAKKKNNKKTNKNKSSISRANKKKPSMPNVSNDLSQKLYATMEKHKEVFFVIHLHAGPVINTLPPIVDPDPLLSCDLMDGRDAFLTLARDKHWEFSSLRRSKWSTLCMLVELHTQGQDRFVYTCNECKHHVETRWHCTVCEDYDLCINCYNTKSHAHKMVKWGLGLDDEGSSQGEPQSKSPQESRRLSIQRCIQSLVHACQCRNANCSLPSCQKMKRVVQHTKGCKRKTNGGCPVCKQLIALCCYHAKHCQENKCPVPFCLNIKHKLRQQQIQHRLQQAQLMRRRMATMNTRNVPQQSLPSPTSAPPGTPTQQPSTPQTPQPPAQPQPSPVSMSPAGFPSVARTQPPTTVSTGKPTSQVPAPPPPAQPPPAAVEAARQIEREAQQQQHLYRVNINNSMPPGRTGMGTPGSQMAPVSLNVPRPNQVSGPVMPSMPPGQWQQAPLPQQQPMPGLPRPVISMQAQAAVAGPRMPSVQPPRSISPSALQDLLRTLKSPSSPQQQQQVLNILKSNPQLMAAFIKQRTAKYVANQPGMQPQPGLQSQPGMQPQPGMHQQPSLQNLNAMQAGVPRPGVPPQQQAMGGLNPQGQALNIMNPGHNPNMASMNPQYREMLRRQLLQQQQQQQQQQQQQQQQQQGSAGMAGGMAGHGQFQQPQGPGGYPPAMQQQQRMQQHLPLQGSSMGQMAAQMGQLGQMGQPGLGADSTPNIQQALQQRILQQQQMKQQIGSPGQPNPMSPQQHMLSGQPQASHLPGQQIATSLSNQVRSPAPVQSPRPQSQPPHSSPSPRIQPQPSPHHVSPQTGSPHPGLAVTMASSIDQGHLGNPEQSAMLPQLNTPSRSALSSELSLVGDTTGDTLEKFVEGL

RS4-11 [5] = experiment: Cytotoxicity against human RS4-11 cells assessed as maximum inhibition of cell growth incubated for 4 days by cellTiter-Glo assay relative to control; format: functional; conditions: time 4 day
[6] = target: T1, Histone acetyltransferase p300; experiment: Induction of p300 degradation in human RS4-11 cells incubated for 4 hrs by Western blot assay; format: cell-based; conditions: for DC50: rs4-11

Compound | IC50 (RS4-11 [1]) | Emax [2] | Emax (CREB-binding protein [3]) | EC50 (CREB-binding protein [4]) | Imax (RS4-11 [5]) | DC50 [6] | EC50 [6]
CC(=O)N1CCc2c(c(-c3cccc4cc(-c5ccc(C(=O)NCCNc6cccc7c6C(=O)N(C6CCC(=O)NC6=O)C7=O)nc5)ncc34)nn2C2CCOCC2)C1 (stereo unspecified) | 196 nM | 37% | 66% | 1.7 nM | 50% | – | –
CC(=O)N1CCc2c(c(-c3cccc4cc(-c5ccc(C(=O)NCCCNc6ccc7c(c6)CN(C6CCC(=O)NC6=O)C7=O)nc5)ncc34)nn2C2CCOCC2)C1 (stereo unspecified) | 0.1 nM | 99% | 99% | < 0.1 nM | >95% | 0.3 nM | –
CC(=O)N1CCc2c(c(-c3cccc4cc(-c5ccc(C(=O)N6CCC7(CCC(Nc8cccc9c8C(=O)N(C8CCC(=O)NC8=O)C9=O)CC7)CC6)nc5)ncc34)nn2C2CCOCC2)C1 (stereo unspecified) | 70 nM | 10% | 21% | – | 65% | – | –
CC(=O)N1CCc2c(c(-c3cccc4cc(-c5ccc(C(=O)NCCCCCCCNc6cccc7c6C(=O)N(C6CCC(=O)NC6=O)C7=O)nc5)ncc34)nn2C2CCOCC2)C1 (stereo unspecified) | 1.6 nM | 87% | 99% | 12 nM | 90% | – | 2.3 nM
CC(=O)N1CCc2c(c(-c3cccc4cc(-c5ccc(C(=O)NCCCc6cccc7c6CN(C6CCC(=O)NC6=O)C7=O)nc5)ncc34)nn2C2CCOCC2)C1 (stereo unspecified) | 0.5 nM | 99% | 95% | 3.3 nM | 95% | 0.3 nM | –
CC(=O)N1CCc2c(c(-c3cccc4cc(-c5ccc(C(=O)N6CCC(Nc7cccc8c7C(=O)N(C7CCC(=O)NC7=O)C8=O)CC6)nc5)ncc34)nn2C2CCOCC2)C1 (stereo unspecified) | 68 nM | 25% | 86% | 1.8 nM | 70% | – | –
CC(=O)N1CCc2c(c(-c3cccc4cc(-c5ccc(C(=O)NCCCCc6cccc7c6CN(C6CCC(=O)NC6=O)C7=O)nc5)ncc34)nn2C2CCOCC2)C1 (stereo unspecified) | 0.1 nM | 99% | 80% | 0.2 nM | >95% | < 0.1 nM | –
CC(=O)N1CCc2c(c(-c3cccc4cc(-c5ccc(C(=O)NCCNc6cccc7c6CN(C6CCC(=O)NC6=O)C7=O)nc5)ncc34)nn2C2CCOCC2)C1 (stereo unspecified) | 1.3 nM | 97% | 99% | 0.6 nM | 85% | 1.8 nM | –
CC(=O)N1CCc2c(c(-c3cccc4cc(-c5ccc(C(=O)N6CCC7(CC6)CC(Nc6cccc8c6C(=O)N(C6CCC(=O)NC6=O)C8=O)C7)nc5)ncc34)nn2C2CCOCC2)C1 (stereo unspecified) | 51 nM | 51% | 96% | 1.7 nM | 71% | – | 9.3 nM
CC(=O)N1CCc2c(c(-c3cccc4cc(-c5ccc(C(=O)NCCCCCc6cccc7c6CN(C6CCC(=O)NC6=O)C7=O)nc5)ncc34)nn2C2CCOCC2)C1 (stereo unspecified) | 0.2 nM | 99% | 99% | 0.2 nM | >95% | 0.1 nM | –
CC(=O)N1CCc2c(c(-c3cccc4cc(-c5ccc(C(=O)NCCCCCNc6cccc7c6C(=O)N(C6CCC(=O)NC6=O)C7=O)nc5)ncc34)nn2C2CCOCC2)C1 (stereo unspecified) | 2.2 nM | 95% | 92% | 1 nM | >95% | – | 0.3 nM
CC(=O)N1CCc2c(c(-c3cccc4cc(-c5ccc(C(=O)NCCCNc6cccc7c6CN(C6CCC(=O)NC6=O)C7=O)nc5)ncc34)nn2C2CCOCC2)C1 (stereo unspecified) | 0.1 nM | 95% | 98% | 0.2 nM | >95% | 1.8 nM | –
CC(=O)N1CCc2c(c(-c3cccc4cc(-c5ccc(C(=O)NCCCCCCCCNc6cccc7c6C(=O)N(C6CCC(=O)NC6=O)C7=O)nc5)ncc34)nn2C2CCOCC2)C1 (stereo unspecified) | 1.5 nM | 97% | 99% | 0.2 nM | 87% | – | 1.6 nM
CC(=O)N1CCc2c(c(-c3cccc4cc(-c5ccc(C(=O)N6CCC(C7CN(c8cccc9c8C(=O)N(C8CCC(=O)NC8=O)C9=O)C7)CC6)nc5)ncc34)nn2C2CCOCC2)C1 (stereo unspecified) | 2.4 nM | 40% | 85% | 3.7 nM | >95% | – | –
CC(=O)N1CCc2c(c(-c3cccc4cc(-c5ccc(C(=O)N6CCC(C7CCN(c8cccc9c8C(=O)N(C8CCC(=O)NC8=O)C9=O)CC7)CC6)nc5)ncc34)nn2C2CCOCC2)C1 (stereo unspecified) | 24 nM | 10% | 58% | 40 nM | 88% | – | –
CC(=O)N1CCc2c(c(-c3cccc4cc(-c5ccc(C(=O)NC6CCN(c7ccc8c(c7)C(=O)N(C7CCC(=O)NC7=O)C8=O)CC6)nc5)ncc34)nn2C2CCOCC2)C1 (stereo unspecified) | 20 nM | 99% | 99% | 1 nM | 83% | – | 1.9 nM
CC(=O)N1CCc2c(c(-c3cccc4cc(-c5ccc(C(=O)NCCCCCCNc6cccc7c6C(=O)N(C6CCC(=O)NC6=O)C7=O)nc5)ncc34)nn2C2CCOCC2)C1 (stereo unspecified) | 0.3 nM | 87% | 99% | 0.6 nM | 80% | – | 0.6 nM
CC(=O)N1CCc2c(c(-c3cccc4cc(-c5ccc(C(=O)N6CCN(c7cccc8c7C(=O)N(C7CCC(=O)NC7=O)C8=O)CC6)nc5)ncc34)nn2C2CCOCC2)C1 (stereo unspecified) | 0.6 nM | 99% | 99% | 0.2 nM | 86% | – | 1.6 nM
CC(=O)N1CCc2c(c(-c3cccc4cc(-c5ccc(C(=O)NCCCCNc6cccc7c6C(=O)N(C6CCC(=O)NC6=O)C7=O)nc5)ncc34)nn2C2CCOCC2)C1 (stereo unspecified) | 0.4 nM | 77% | 70% | 1.3 nM | >95% | – | 0.8 nM
CC(=O)N1CCc2c(c(-c3cccc4cc(-c5ccc(C(=O)N6CC7(CC(Nc8cccc9c8C(=O)N(C8CCC(=O)NC8=O)C9=O)C7)C6)nc5)ncc34)nn2C2CCOCC2)C1 (stereo unspecified) | 11 nM | 95% | 99% | 0.3 nM | 85% | – | 1.1 nM
CC(=O)N1CCc2c(c(-c3cccc4cc(-c5ccc(C(=O)NCCCNc6cccc7c6C(=O)N(C6CCC(=O)NC6=O)C7=O)nc5)ncc34)nn2C2CCOCC2)C1 (stereo unspecified) | 0.1 nM | 90% | 71% | 1.2 nM | >95% | – | 0.7 nM
C[C@H](N(Cc1ccc(F)cc1)C(=O)CN1C(=O)O[C@@]2(CCc3cc(NC(=O)CCCCCCCCCCCNc4ccc5c(c4)C(=O)N(C4CCC(=O)NC4=O)C5=O)ccc32)C1=O)C(F)(F)F (stereo partly specified) | 91 nM | – | – | – | 99% | – | –
CC(=O)N1CCc2c(c(-c3cccc4cc(-c5ccc(C(=O)N6CC7(CCC(Nc8cccc9c8C(=O)N(C8CCC(=O)NC8=O)C9=O)CC7)C6)nc5)ncc34)nn2C2CCOCC2)C1 (stereo unspecified) | 44 nM | 62% | 81% | 4.8 nM | 75% | – | 25 nM
CNC(=O)N1CCc2c(c(N3CCCc4cc(-c5cnn(C)c5)c(C(F)F)cc43)nn2C2CCN(C(=O)CCOCCOCCOCCOCCNc3ccc4c(c3)C(=O)N(C3CCC(=O)NC3=O)C4=O)CC2)C1 (stereo unspecified) | 4.8 nM | – | – | – | 89% | – | –
CC(=O)N1CCc2c(c(-c3cccc4cc(-c5ccc(C(=O)NCCNc6ccc7c(c6)CN(C6CCC(=O)NC6=O)C7=O)nc5)ncc34)nn2C2CCOCC2)C1 (stereo unspecified) | 0.1 nM | 73% | 80% | 1.1 nM | >95% | 5.1 nM | –
